Values of other authors as cited in patent US20070082063A1, “Risk assessment and correction of membrane damage of the upper GI tract” (priority 2005, published 2007).

Legend:
[1] = animals with reduced membrane arachidonate
[2] = humans or animals with normal membrane arachidonate content

In the case of `CCCCC/C=C\C/C=C\C/C=C\CCCCC(=O)O` [GLA, gamma-linolenic acid], the “effect on membrane arachidonate content” value [1] is given as “significantly increase”.

For `CCCCC/C=C\C/C=C\C/C=C\C/C=C\CCCC(=O)O` [ARA, arachidonic acid], the “effect on serum or tissue arachidonate content” value [2] is given as “little effect”.
